Data reported in patent US12479847B2 (DANA-FARBER CANCER INSTITUTE, INC., priority 2019, dated 2025).
Read-outs that look alike come from different tables or passages of the source.

Assays:
Test in all cases: KINOMEscan (ScanMAX) kinase profiling
Format in all cases: binding
panel of 468 kinases [1] = target: T1, panel of 468 kinases (Homo sapiens, UniProt O75676); details: 1 μM, read-out: % control
T1 construct: purchased KINOMEscan (ScanMAX) service

panel of 468 kinases [2] = target: T2, panel of 468 kinases (Homo sapiens, UniProt P06239); details: LCK; 1 μM; read-out: % control
T2 construct: purchased KINOMEscan (ScanMAX) service
T2 sequence (P06239 whole entry): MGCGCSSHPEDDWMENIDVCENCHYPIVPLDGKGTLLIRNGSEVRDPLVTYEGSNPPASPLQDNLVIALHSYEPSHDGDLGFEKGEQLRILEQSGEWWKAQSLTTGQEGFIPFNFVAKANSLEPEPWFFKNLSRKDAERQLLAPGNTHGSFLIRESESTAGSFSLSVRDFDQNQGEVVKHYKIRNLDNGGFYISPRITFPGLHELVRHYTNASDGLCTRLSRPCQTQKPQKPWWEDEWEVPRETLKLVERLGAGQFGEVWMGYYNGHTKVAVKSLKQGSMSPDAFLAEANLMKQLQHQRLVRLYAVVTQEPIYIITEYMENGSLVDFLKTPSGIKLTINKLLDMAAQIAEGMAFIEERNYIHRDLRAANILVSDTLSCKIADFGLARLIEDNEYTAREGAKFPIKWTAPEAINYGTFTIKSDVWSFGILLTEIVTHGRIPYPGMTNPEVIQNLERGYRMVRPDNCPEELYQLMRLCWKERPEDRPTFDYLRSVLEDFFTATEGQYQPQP

panel of 468 kinases [3] = target: T3, panel of 468 kinases (Homo sapiens, UniProt P09619); details: PDGFRB; 1 μM; read-out: % control
T3 construct: purchased KINOMEscan (ScanMAX) service
T3 sequence (P09619 33-1106): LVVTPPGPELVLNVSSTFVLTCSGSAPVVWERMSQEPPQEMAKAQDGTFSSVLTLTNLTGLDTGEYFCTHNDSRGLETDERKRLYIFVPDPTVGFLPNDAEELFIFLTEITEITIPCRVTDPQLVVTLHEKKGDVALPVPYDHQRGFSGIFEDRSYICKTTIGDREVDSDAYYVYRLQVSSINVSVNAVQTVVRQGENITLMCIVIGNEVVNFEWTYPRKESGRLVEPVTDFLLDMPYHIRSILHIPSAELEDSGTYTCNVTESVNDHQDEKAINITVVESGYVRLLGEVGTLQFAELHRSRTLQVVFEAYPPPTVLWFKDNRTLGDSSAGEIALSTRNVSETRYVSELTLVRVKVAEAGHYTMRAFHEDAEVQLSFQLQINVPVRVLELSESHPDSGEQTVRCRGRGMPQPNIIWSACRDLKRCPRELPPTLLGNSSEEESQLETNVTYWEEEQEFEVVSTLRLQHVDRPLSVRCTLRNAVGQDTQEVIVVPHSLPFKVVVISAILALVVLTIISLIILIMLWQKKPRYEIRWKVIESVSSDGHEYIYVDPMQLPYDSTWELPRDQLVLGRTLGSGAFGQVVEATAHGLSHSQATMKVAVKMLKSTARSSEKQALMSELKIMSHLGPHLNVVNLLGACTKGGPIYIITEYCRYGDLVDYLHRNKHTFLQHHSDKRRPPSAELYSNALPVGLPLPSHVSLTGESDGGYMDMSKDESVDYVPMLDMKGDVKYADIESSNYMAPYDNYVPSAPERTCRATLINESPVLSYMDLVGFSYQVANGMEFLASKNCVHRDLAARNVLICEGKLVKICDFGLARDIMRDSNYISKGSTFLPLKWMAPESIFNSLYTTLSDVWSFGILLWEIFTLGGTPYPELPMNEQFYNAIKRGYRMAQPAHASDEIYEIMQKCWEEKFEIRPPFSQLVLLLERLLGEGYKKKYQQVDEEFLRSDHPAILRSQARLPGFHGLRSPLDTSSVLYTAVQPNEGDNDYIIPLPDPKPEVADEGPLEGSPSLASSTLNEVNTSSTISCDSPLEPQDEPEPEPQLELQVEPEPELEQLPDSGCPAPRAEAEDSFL

panel of 468 kinases [4] = target: T4, panel of 468 kinases (Homo sapiens, UniProt P27361); details: ERK1; 1 μM; read-out: % control
T4 construct: purchased KINOMEscan (ScanMAX) service
T4 sequence (P27361 whole entry): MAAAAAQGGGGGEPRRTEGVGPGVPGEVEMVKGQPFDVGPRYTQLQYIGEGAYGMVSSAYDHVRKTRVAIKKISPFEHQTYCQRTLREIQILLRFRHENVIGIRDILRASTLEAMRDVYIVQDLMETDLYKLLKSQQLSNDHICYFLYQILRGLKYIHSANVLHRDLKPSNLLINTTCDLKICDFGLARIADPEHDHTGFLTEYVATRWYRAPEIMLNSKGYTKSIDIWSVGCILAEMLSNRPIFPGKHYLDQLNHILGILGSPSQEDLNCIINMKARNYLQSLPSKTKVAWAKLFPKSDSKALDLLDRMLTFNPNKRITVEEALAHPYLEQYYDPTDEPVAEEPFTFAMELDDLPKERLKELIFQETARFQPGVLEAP

panel of 468 kinases [5] = target: T5, panel of 468 kinases (Homo sapiens, UniProt P29323); details: EPHB2; 1 μM; read-out: % control
T5 construct: purchased KINOMEscan (ScanMAX) service
T5 sequence (P29323 19-1055): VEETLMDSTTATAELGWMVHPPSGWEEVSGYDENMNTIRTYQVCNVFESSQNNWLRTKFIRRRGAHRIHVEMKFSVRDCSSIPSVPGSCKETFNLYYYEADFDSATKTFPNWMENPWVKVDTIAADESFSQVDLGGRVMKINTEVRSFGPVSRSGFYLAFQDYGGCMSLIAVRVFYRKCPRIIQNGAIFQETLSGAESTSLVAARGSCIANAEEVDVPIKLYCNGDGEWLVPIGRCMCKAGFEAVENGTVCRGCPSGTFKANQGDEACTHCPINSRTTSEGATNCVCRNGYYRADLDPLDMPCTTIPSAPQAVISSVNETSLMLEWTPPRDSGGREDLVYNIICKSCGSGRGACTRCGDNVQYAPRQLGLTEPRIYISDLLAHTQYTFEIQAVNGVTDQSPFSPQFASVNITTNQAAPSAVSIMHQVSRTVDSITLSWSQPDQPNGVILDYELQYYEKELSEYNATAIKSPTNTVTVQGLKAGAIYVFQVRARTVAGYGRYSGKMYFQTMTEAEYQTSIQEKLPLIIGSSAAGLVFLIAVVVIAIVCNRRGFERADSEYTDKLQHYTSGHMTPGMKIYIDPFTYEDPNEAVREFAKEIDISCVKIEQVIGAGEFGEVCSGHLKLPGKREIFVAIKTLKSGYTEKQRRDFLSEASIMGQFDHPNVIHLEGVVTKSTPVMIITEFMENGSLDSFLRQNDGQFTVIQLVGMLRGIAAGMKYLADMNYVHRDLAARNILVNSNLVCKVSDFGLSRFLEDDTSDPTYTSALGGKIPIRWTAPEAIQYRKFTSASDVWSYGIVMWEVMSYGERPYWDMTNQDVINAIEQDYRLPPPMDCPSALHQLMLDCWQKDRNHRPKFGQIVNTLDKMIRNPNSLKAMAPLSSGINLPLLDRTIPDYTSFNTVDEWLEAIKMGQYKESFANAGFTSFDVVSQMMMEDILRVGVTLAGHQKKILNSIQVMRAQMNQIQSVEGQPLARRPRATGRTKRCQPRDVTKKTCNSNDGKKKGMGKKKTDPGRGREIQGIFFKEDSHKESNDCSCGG

panel of 468 kinases [6] = target: T6, panel of 468 kinases (Homo sapiens, UniProt Q13233); details: MAP3K1; 1 μM; read-out: % control
T6 construct: purchased KINOMEscan (ScanMAX) service
T6 sequence (Q13233 whole entry): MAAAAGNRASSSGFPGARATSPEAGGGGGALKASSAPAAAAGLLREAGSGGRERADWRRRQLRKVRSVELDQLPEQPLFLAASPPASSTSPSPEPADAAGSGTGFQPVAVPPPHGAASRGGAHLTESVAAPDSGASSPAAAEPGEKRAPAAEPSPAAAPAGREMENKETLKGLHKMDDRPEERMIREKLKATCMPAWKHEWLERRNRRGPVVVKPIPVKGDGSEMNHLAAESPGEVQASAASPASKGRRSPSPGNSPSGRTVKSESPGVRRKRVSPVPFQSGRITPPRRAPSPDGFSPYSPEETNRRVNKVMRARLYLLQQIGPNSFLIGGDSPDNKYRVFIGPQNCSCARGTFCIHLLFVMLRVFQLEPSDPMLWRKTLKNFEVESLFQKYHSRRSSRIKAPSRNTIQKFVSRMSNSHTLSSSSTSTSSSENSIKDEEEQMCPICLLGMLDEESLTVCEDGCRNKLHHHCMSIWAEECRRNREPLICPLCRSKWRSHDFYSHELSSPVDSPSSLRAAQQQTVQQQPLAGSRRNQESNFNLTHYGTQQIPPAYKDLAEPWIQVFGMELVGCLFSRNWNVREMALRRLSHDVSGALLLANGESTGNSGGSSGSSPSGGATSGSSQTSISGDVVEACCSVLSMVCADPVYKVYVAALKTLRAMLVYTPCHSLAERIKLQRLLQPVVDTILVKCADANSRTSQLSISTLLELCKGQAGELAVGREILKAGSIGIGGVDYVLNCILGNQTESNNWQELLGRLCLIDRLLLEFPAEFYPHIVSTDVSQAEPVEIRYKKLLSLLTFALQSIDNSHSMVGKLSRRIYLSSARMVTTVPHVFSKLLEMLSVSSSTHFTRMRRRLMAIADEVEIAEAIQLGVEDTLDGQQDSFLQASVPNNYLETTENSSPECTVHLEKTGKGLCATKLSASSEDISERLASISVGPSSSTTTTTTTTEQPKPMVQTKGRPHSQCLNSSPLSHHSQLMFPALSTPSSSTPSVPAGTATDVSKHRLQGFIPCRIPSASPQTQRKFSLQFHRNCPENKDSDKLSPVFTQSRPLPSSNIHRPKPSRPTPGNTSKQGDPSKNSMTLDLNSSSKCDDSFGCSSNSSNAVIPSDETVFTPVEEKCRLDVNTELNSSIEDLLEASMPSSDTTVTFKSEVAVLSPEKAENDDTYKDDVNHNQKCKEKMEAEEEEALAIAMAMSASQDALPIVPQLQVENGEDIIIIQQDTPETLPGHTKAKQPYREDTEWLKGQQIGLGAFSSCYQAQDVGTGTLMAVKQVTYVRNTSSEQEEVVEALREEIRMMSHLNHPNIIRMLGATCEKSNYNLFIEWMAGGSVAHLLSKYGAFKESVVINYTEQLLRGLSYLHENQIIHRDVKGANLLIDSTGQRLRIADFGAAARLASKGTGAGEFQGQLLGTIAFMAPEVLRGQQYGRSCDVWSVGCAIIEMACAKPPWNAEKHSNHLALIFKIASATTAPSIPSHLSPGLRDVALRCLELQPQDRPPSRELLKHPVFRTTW

panel of 468 kinases [7] = target: T7, panel of 468 kinases (Homo sapiens, UniProt Q8N568); details: DCAMKL2; 1 μM; read-out: % control
T7 construct: purchased KINOMEscan (ScanMAX) service
T7 sequence (Q8N568 whole entry): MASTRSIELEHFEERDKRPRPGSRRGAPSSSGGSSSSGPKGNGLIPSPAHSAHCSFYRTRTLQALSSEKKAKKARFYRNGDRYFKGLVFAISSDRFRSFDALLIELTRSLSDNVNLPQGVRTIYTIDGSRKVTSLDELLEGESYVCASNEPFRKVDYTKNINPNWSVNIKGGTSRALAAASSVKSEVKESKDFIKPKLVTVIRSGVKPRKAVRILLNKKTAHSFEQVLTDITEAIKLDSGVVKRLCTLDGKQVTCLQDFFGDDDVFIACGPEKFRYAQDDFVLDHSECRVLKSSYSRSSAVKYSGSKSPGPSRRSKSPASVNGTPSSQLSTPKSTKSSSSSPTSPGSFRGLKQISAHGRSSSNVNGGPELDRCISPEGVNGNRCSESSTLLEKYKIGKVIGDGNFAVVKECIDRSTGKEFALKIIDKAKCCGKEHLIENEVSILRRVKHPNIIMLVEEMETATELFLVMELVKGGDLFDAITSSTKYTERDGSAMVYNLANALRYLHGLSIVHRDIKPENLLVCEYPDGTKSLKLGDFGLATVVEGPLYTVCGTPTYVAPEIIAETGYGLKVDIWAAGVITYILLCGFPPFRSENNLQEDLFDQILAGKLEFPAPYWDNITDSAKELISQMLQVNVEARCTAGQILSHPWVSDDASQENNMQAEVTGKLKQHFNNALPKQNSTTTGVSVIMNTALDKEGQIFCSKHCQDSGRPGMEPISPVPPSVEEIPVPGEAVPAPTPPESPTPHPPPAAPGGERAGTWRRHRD

panel of 468 kinases [8] = target: T8, panel of 468 kinases (Homo sapiens, UniProt Q8TF76); details: HASPIN; 1 μM; read-out: % control
T8 construct: purchased KINOMEscan (ScanMAX) service
T8 sequence (Q8TF76 1-798): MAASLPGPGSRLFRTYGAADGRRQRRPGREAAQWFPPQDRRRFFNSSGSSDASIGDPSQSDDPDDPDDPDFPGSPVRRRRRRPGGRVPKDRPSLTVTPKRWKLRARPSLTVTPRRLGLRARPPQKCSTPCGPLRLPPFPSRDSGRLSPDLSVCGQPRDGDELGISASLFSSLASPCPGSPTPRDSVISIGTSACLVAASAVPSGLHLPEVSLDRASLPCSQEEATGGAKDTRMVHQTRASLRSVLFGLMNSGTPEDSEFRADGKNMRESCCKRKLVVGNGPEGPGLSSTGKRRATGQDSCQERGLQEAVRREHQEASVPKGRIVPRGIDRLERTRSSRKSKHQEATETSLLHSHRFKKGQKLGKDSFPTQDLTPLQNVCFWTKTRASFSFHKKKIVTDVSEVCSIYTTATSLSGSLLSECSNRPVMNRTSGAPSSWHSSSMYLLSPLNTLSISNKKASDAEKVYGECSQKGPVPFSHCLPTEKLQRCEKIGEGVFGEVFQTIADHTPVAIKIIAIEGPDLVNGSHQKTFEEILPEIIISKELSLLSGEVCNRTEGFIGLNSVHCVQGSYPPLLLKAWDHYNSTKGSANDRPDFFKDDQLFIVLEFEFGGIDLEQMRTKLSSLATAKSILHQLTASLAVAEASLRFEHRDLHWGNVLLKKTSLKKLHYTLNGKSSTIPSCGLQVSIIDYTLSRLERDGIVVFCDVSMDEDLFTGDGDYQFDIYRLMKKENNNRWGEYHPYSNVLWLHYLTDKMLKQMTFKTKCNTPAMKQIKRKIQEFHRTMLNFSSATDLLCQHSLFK

T1 sequence (O75676 whole entry): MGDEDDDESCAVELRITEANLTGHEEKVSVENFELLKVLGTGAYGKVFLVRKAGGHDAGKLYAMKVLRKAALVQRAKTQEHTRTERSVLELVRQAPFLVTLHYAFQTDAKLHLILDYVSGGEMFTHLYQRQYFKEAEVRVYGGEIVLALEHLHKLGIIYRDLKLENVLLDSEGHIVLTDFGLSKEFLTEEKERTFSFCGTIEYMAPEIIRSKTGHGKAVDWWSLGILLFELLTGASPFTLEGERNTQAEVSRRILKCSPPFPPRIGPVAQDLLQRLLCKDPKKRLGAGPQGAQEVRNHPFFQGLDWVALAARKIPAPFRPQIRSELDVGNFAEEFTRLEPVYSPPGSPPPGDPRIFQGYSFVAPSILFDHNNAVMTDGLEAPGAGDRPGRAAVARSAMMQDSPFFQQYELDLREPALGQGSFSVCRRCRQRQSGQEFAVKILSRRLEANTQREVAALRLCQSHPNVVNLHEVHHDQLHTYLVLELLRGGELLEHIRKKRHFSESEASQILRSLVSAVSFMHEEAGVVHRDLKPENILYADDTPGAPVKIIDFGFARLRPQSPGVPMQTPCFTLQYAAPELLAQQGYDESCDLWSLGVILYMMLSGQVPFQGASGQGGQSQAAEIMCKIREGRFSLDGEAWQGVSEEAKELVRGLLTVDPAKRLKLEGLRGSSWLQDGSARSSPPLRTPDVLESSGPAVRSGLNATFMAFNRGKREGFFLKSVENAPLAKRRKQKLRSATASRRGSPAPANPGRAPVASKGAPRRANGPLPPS

Row | SMILES | remaining binding at 1 µM (panel of 468 kinases [1]; RPS6KA4(Kin.Dom.1-N-terminal)) | remaining binding at 1 µM (panel of 468 kinases [1]; RPS6KA4(Kin.Dom.2-C-terminal)) | remaining binding at 1 µM (panel of 468 kinases [2]) | remaining binding at 1 µM (panel of 468 kinases [3]) | remaining binding at 1 µM (panel of 468 kinases [4]) | remaining binding at 1 µM (panel of 468 kinases [5]) | remaining binding at 1 µM (panel of 468 kinases [6]) | remaining binding at 1 µM (panel of 468 kinases [7]) | remaining binding at 1 µM (panel of 468 kinases [8])
1 | CNc1nc(Nc2ccc(C(=O)N3CCC(N4CCOCC4)CC3)c3c2OCO3)nc2[nH]cc(Cl)c12 [Compound 75, (7-((5-chloro-4-(methylamino)-7H-pyrrolo[2,3-d]pyrimidin-2-yl)amino)benzo[d][1,3]dioxol-4-yl)(4-morpholinopiperidin-1-yl)methanone] | 89% | 3.9% | 100% | 56% | 100% | 100% | 82% | 99% | 25%
2 | CNc1nc(Nc2ccc(S(=O)(=O)N3CCC(N4CCOCC4)CC3)cc2OC)nc2[nH]cc(Cl)c12 [Compound 12, 5-chloro-N2-(2-methoxy-4-((4-morpholinopiperidin-1-yl)sulfonyl)phenyl)-N4-methyl-7H-pyrrolo[2,3-d]pyrimidine-2,4-diamine] | 100% | 13% | 91% | 89% | 100% | 100% | 79% | 96% | 29%
3 | CNc1nc(Nc2ccc(P3(=O)CCN(C4CCOCC4)CC3)cc2OC)nc2[nH]cc(Cl)c12 [Compound 77, 4-(4-((5-chloro-4-(methylamino)-7H-pyrrolo[2,3-d]pyrimidin-2-yl)amino)-3-methoxyphenyl)-1-(tetrahydro-2H-pyran-4-yl)-1,4-azaphosphinane 4-oxide] | 100% | 0.7% | 100% | 100% | 100% | 100% | 73% | 100% | 35%
